{"source": "patent US4542027A", "about": "“Laidlomycin phenylcarbamate” (Syntex (U.S.A.) Inc., priority 1984, dated 1985)", "key": {"[1]": {"test": "Stability in soybean millrun feed premix at 60° C.", "type": "physicochemical", "details": "soybean millrun feed premix; 60° C., one week, soybean millrun premix, 10% (w/w)", "protocol": "These materials were then stored at 60° C. and analyzed for starting material at one week. The premix composition is given in Table 5 and the stability data in Table 6."}, "[2]": {"test": "Stability at 60° C. in methanol-water, acetate buffer", "type": "physicochemical", "details": "methanol-water, acetate buffer", "protocol": "Laidlomycin phenylcarbamate, laidlomycin isopopylcarbamate and two laidlomycin esters were prepared and their relative stability at 60° C. methanol-water, acetate buffer was determined. A complete list of the esters and carbamates which were tested under these conditions follows: […]"}, "Gram positive bacteria": {"test_system": "Gram positive bacteria", "details": "Journal of Antibiotics 1974, 1976; cited from earlier work"}, "rumen fluid [3]": {"test_system": "rumen fluid", "test": "Propionic acid production (VFA) in in vitro rumen fluid fermentation", "type": "cell-based, steer", "parameters": "Propionic acid production rate: unit not given here", "details": "9 h", "protocol": "(§1) Two separate fermentation models were used to evaluate effects of laidlomycin and laidlomycin phenylcarbamate upon volatile fatty acids (VFA) and lactic acid production. Test compounds were solubilized in absolute ethanol at concentrations of 1 mg/ml and were serially diluted twofold in absolute ethanol through six additional concentrations. Aliquots of 200 μl were transferred to 18×150 mm test tubes, which were used as incubation vessels, and the ethanol was evaporated.\n(§2) For both fermentation models rumen fluid from a rumen-fistulated steer, consuming a 100% alfalfa hay diet, was obtained before the morning feeding. The fluid was strained through four layers of cheesecloth, mixed with an equal volume of CO2 -saturated buffer, and 10 ml was transferred to each of the incubation vessels. All tubes were fitted with gas-release stoppers under an atmosphere of CO2 and were incubated in a shaking waterbath at 39° C. […] This medium, designed to be microbiologically nonselective, encouraged VFA production with no accumulation of lactic acid. Buffer used to study lactic acid accumulation (table 1) contained 150 mmol of glucose/liter and had little buffering capacity. This medium favored growth of lactic acid-producing bacteria and allowed rapid production of lactic acid coupled with a precipitous drop in pH from pH 6.2 to less than pH 5 during the course of an incubation.\n(§3) Fermentation was terminated at 9 h for the VFA fermentations and at 5.5 h for the lactic acid fermentations by addition of 2 ml of 25% metaphosphoric acid to the incubation tubes. Aliquots were frozen overnight, thawed, centrifuged at 30,000 × g for 10 min and the resulting supernatants analyzed for either L(+)-lactic acid or VFA. The L(+)-lactic acid was analyzed via a specific enzymatic assay in which the concentration of lactic acid in the fermentation broth was quantified by the increase in absorbance of light at 340 nm when nicotinamide adenine dinucleotide was reduced by lactic acid with the aid of L(+)-lactic dehydrogenase. VFA were analyzed via gas chromatography using a Varian chromatograph equipped with a flame ionization detector. Acids were separated on a glass column (0.64×182.9 cm) packed with 10% SP-1200/1% H3 PO4 on Chromosorb-WAW®, 80-100 mesh. This column was obtained pre-packed from Supelco, Inc., Bellefont, Pennsylvania. Chromatographic conditions included a column temperature of 145° C., an injector temperature of 190° C., a detector temperature of 190° C., a carrier gas flow of 45 ml/min and an injection volume of 1 μl.\n(§4) Net production rates of all acids were calculated by subtracting the concentration of acids in the incubation fluid before incubation from the concentration determined in each tube after incubation. Molar proportions of acetic, propionic, and butyric acids produced were calculated by dividing the production rate of individual acids by the sum of the production rates of the three acids. Data were analyzed by analysis of variance (SAS, 1979). Comparisons (Duncan's multiple range test) of individual means were made when treatment effects (P<0.05) were indicated."}, "rumen fluid [4]": {"test_system": "rumen fluid", "test": "L(+)-Lactic acid production in in vitro rumen fluid fermentation", "type": "cell-based, steer", "parameters": "Lactic acid production rate: unit not given here", "details": "5.5 h", "protocol": "as §1, §2, §3, §4"}, "[5]": {"details": "U.S. Pat. No. 3,794,732; cited from earlier work"}}, "note": "Read-outs that look alike come from different tables or passages of the source.", "data": [{"molecule": "CCC(=O)OC(C(C)C(=O)O)C(C)C1OC2(CCC(C)(C3CCC(C)(C4OC(C5OC(O)(COC(=O)C(C)C)C(C)CC5C)CC4C)O3)O2)CC(O)C1C", "note": "(stereo not shown) [Laidlomycin isobutyrate, reference compound]", "values": [{"measurement": "remaining at 168 h", "setting": "[1]", "result": 70, "unit": "%"}]}, {"molecule": "CCC(=O)OCC1(O)OC(C2CC(C)C(C3(C)CCC(C4(C)CCC5(CC(O)C(C)C(C(C)C(OC(=O)CC)C(C)C(=O)O)O5)O4)O3)O2)C(C)CC1C", "note": "(stereo not shown) [Laidlomycin propionate, reference compound]", "values": [{"measurement": "remaining at 168 h", "setting": "[1]", "result": 59, "unit": "%"}, {"measurement": "half-life", "setting": "[2]; 60° C., read-out: t1/2 (converted)", "result": 11.1, "unit": "h"}]}, {"molecule": "CCC(=O)OC(C(C)C(=O)O)C(C)C1OC2(CCC(C)(C3CCC(C)(C4OC(C5OC(O)(CO)C(C)CC5C)CC4C)O3)O2)CC(O)C1C", "note": "(stereo not shown) [Laidlomycin, laidlomycin]", "values": [{"measurement": "Growth inhibition of Gram positive bacteria", "setting": "Gram positive bacteria", "result": "inhibits the growth of Gram positive bacteria"}, {"measurement": "Propionic acid production rate", "setting": "rumen fluid [3]; 0.31 μg/ml", "result": 21.1}, {"measurement": "Propionic acid production rate", "setting": "rumen fluid [3]; 1.25 μg/ml", "result": 20.9}, {"measurement": "Propionic acid production rate", "setting": "rumen fluid [3]; 2.50 μg/ml", "result": 21.8}, {"measurement": "Propionic acid production rate", "setting": "rumen fluid [3]; 5.00 μg/ml", "result": 22.2}, {"measurement": "Propionic acid production rate", "setting": "rumen fluid [3]; 10.00 μg/ml", "result": 23.1}, {"measurement": "Propionic acid production, percentage of control", "setting": "rumen fluid [3]; 10.00 μg/ml", "result": "108 % of control"}, {"measurement": "Propionic acid production rate", "setting": "rumen fluid [3]; 20.00 μg/ml", "result": 23.2}, {"measurement": "Propionic acid production, percentage of control", "setting": "rumen fluid [3]; 20.00 μg/ml", "result": "109 % of control"}, {"measurement": "activity at 0.31 µg/mL", "setting": "rumen fluid [3]; 0.31 μg/ml, read-out: Propionic acid production, percentage of control", "result": 99, "unit": "%"}, {"measurement": "activity at 1.25 µg/mL", "setting": "rumen fluid [3]; 1.25 μg/ml, read-out: Propionic acid production, percentage of control", "result": 98, "unit": "%"}, {"measurement": "activity at 2.5 µg/mL", "setting": "rumen fluid [3]; 2.50 μg/ml, read-out: Propionic acid production, percentage of control", "result": 102, "unit": "%"}, {"measurement": "activity at 5 µg/mL", "setting": "rumen fluid [3]; 5.00 μg/ml, read-out: Propionic acid production, percentage of control", "result": 104, "unit": "%"}, {"measurement": "activity at 10 µg/mL", "setting": "rumen fluid [3]; 10.00 μg/ml, read-out: Propionic acid production, percentage of control", "result": 108, "unit": "%"}, {"measurement": "activity at 20 µg/mL", "setting": "rumen fluid [3]; 20.00 μg/ml, read-out: Propionic acid production, percentage of control", "result": 109, "unit": "%"}, {"measurement": "activity at 0.62 µg/mL", "setting": "rumen fluid [3]; read-out: Propionic acid production, percentage of control, 0.62 μg/ml, 9 h", "result": 98, "unit": "%"}, {"measurement": "Lactic acid production rate", "setting": "rumen fluid [4]; 0.31 μg/ml", "result": 28.3}, {"measurement": "activity at 0.31 µg/mL", "setting": "rumen fluid [4]; 0.31 μg/ml, read-out: Lactic acid production, percentage of control", "result": 101, "unit": "%"}, {"measurement": "Lactic acid production rate", "setting": "rumen fluid [4]; 0.62 μg/ml", "result": 30.7}, {"measurement": "activity at 0.62 µg/mL", "setting": "rumen fluid [4]; 0.62 μg/ml, read-out: Lactic acid production, percentage of control", "result": 110, "unit": "%"}, {"measurement": "Lactic acid production rate", "setting": "rumen fluid [4]; 1.25 μg/ml", "result": 26.4}, {"measurement": "activity at 1.25 µg/mL", "setting": "rumen fluid [4]; 1.25 μg/ml, read-out: Lactic acid production, percentage of control", "result": 94, "unit": "%"}, {"measurement": "Lactic acid production rate", "setting": "rumen fluid [4]; 2.50 μg/ml", "result": 32.0}, {"measurement": "activity at 2.5 µg/mL", "setting": "rumen fluid [4]; 2.50 μg/ml, read-out: Lactic acid production, percentage of control", "result": 115, "unit": "%"}, {"measurement": "Lactic acid production rate", "setting": "rumen fluid [4]; 5.00 μg/ml", "result": 26.5}, {"measurement": "activity at 5 µg/mL", "setting": "rumen fluid [4]; 5.00 μg/ml, read-out: Lactic acid production, percentage of control", "result": 95, "unit": "%"}, {"measurement": "Lactic acid production rate", "setting": "rumen fluid [4]; 10.00 μg/ml", "result": 21.6}, {"measurement": "activity at 10 µg/mL", "setting": "rumen fluid [4]; 10.00 μg/ml, read-out: Lactic acid production, percentage of control", "result": 77, "unit": "%"}, {"measurement": "Lactic acid production rate", "setting": "rumen fluid [4]; 20.00 μg/ml", "result": 22.7}, {"measurement": "Lactic acid production, percentage of control", "setting": "rumen fluid [4]; 20.00 μg/ml", "result": "81 % of control"}, {"measurement": "activity at 20 µg/mL", "setting": "rumen fluid [4]; 20.00 μg/ml, read-out: Lactic acid production, percentage of control", "result": 81, "unit": "%"}]}, {"molecule": "CC[C@@]1([C@@H]2O[C@@H]([C@H]3O[C@@](O)(CO)[C@H](C)C[C@@H]3C)C[C@@H]2C)CC[C@H]([C@]2(C)CC[C@]3(C[C@H](O)[C@@H](C)[C@@H]([C@@H](C)[C@@H](OC)[C@H](C)C(=O)O)O3)O2)O1", "note": "[Monensin]", "values": [{"measurement": "Increasing feed utilization in ruminants", "setting": "[5]", "result": "useful in increasing feed utilization in ruminants"}]}, {"molecule": "CCCC(=O)O", "note": "[butyrate]", "values": [{"measurement": "half-life", "setting": "[2]", "result": 22.3, "unit": "h"}]}, {"molecule": "laidlomycin isopopylcarbamate [isopropylcarbamate]", "values": [{"measurement": "t1/2", "setting": "[2]; 60° C.", "result": 501.8, "unit": "h"}]}]}
